{
  "source": "patent US9353115B2",
  "about": "“Immune system modulators” (JANUS BIOTHERAPEUTICS, INC., priority 2011, dated 2016)",
  "key": {"human TLR9 (hTLR9)": {"target": "human TLR9 (hTLR9) (Homo sapiens (Human), UniProt Q9NR96)", "sequence (Q9NR96 26-1032)": "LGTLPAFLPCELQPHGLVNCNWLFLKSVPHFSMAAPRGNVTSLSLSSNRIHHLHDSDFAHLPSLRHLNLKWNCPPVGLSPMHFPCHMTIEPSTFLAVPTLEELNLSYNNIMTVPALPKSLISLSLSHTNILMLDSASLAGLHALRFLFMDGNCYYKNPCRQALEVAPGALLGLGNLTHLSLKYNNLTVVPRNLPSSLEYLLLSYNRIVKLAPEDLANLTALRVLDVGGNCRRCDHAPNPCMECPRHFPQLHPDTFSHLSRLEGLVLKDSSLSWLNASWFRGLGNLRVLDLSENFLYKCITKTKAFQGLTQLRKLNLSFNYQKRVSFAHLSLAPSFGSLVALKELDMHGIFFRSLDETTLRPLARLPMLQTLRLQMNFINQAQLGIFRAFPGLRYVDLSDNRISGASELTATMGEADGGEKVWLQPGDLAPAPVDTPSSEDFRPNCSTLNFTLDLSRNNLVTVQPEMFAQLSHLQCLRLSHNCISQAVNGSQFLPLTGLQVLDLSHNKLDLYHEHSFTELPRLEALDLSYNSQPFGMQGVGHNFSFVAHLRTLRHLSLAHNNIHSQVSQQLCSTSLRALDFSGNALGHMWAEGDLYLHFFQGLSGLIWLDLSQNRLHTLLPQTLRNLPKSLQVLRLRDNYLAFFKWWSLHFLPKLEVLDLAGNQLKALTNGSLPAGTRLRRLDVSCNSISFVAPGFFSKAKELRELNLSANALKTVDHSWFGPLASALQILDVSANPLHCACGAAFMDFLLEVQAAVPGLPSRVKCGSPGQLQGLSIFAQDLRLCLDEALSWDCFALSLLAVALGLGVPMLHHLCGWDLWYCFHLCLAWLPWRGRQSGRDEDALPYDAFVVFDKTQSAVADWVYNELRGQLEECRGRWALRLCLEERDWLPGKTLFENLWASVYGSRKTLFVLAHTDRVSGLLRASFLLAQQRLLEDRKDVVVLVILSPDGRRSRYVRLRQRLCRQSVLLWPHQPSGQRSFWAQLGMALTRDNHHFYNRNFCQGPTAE", "test": "TLR9 antagonist assay in HEK-Blue-hTLR9 cells (SEAP reporter, ODN 2006 agonist)", "type": "cell-based", "conditions": "inhibition of hTLR9 dependent SEAP production, hTLR9 agonist such as ODN 2006, 1 μM, read-out: hTLR9 antagonism IC50", "excerpt": "HEK-Blue™-hTLR9 cells were obtained from InvivoGen Inc. and used to determine test compound antagonism of human TLR9 (hTLR9) driven responses. HEK-Blue™-hTLR9 cells are designed for studying the stimulation of human TLR9 by monitoring the activation of NF-kB. As described by the manufacturer, “HEK-Blue™-hTLR9 cells were obtained by co-transfection of the hTLR9 gene and an optimized secreted embryonic alkaline phosphatase (SEAP) reporter gene into HEK293 cells. The SEAP reporter gene is placed under the control of the IFN-b minimal promoter fused to five NF-kB and AP-1 binding sites. Stimulation with a TLR9 ligand activates NF-kB and AP-1 which induces the production of SEAP. Levels of SEAP can be easily determined with QUANTI-Blue™ a detection medium that turns purple/blue in the presence of alkaline phosphatase”. […]\nInvivogen's QUANTI-Blue™ was prepared following the manufacturer's instructions. […] SEAP levels were determined using a spectrophotometer at 620 nm.\nThe concentration dependent inhibition of hTLR9 dependent SEAP production was expressed as the concentration of compound which produced half the maximal level of SEAP induced by the hTLR agonist alone. Percent activity was calculated for each observation using the formula: % activity=((observed O.D.−background O.D.)/(agonist only O.D.−background O.D.))*100. […]"}, "TLR9": {"target": "TLR9 (Mus musculus (Mouse), UniProt Q9EQU3)", "sequence (Q9EQU3 26-1032)": "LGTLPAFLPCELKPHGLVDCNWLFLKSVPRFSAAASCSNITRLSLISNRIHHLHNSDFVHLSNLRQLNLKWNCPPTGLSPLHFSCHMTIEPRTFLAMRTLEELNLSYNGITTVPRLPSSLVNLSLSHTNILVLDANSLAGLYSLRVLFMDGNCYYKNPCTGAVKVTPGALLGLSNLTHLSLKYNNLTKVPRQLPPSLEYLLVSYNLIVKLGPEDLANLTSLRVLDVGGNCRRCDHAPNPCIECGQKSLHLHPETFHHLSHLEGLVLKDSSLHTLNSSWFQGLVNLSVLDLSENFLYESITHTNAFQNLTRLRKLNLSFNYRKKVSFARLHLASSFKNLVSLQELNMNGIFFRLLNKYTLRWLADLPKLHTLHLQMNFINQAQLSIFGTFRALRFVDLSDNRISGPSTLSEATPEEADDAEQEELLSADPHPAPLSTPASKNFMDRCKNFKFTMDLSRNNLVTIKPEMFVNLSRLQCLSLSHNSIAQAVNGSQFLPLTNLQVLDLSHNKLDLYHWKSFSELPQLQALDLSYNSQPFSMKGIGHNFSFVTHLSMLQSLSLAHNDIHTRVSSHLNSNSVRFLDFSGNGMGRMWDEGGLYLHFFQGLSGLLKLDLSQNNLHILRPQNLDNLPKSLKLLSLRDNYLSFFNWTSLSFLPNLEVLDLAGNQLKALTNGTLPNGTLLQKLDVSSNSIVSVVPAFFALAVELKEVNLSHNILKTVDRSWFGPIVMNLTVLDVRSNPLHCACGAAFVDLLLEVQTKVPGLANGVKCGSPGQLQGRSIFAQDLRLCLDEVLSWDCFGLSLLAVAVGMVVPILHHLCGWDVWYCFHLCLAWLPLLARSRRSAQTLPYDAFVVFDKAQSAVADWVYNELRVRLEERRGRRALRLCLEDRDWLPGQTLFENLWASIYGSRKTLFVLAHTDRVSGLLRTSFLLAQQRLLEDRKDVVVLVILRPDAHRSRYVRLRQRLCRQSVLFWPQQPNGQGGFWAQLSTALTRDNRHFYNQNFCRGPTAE", "test": "In vivo TLR knockdown: serum IL-12 after CpG ODN 1668 TLR9 agonist injection in C57Bl/6J mice", "conditions": "male C57Bl/6J mice; single intraperitoneal dose; CpG ODN 1668 i.p. 1 hr later; serum IL-12 ELISA 3 hours post agonist", "procedure": "The Effects of Test Articles on Toll-Like Receptor (TLR) Knockdown Following a Single Intraperitoneal Dose to Male C57Bl/6 Mice.\nToll-Like Receptor (TLR) knockdown effect of test articles was evaluated in a C57Bl/6J mouse. Primary end points included a terminal blood collection for analysis of cytokine production in response to CpG-DNA TLR9 agonist injection. Male C57Bl/6J mice, at ˜8 weeks of age from Jackson Laboratories were used. Test groups were 3 mice per treatment group and the groups were administered test article in a series of descending doses within the range of 400 μg to 10 μg. Test article treatment was dosed at T=0 hr by intraperitoneal injection. Agonist (CpG ODN 1668) treatment was dosed one hour later, T=1 hr by intraperitoneal injection. Necropsy was performed 3 hours post agonist treatment, T=4 hr. Blood samples were collected into serum separator tubes, allowed to clot at room temperature for at least 20 minutes, centrifuged at ambient temperature at 3000 g for 10 minutes, and the serum was extracted. ELISA was performed to determine murine IL-12 levels following manufacture's protocol (BioLegend Inc.). Serum IL-12 levels were calculated and plotted versus administered dose of antagonist and inhibitory dose at 50% (ID50) was determined."}},
  "data": [
    {"smiles": "CN1CCN(CCn2c(O)nc3c(NCCN4CCOCC4)nc(-c4ccccc4)nc32)CC1", "note": "[Example 63]", "values": [
      {"measurement": "IC50", "setting": "human TLR9 (hTLR9)", "value": 497, "unit": "nM"}
    ]},
    {"smiles": "CN1CCN(CCNc2nc(-c3ccccc3)nc3c2nc(O)n3CCN2CCOCC2)CC1", "note": "[Example 57]", "values": [
      {"measurement": "IC50", "setting": "human TLR9 (hTLR9)", "value": 271, "unit": "nM"},
      {"measurement": "In vivo TLR antagonism ID50 (inhibitory dose at 50% of serum IL-12)", "setting": "TLR9", "value": 348, "unit": "µg"}
    ]}
  ]
}
